Values joined by “and” are separate entries in the source; they are usually repeats but may differ in a detail not shown here. Equal entries are not always repeated. Inconclusive results and toxic doses are left out.

This is an account of results in PubChem BioAssay AID256 (DTP/NCI, 2004).

This assay has as its system CD2F1 mice, L1210 leukemia ip, survival T/C. The experiment in a line: NCI In Vivo Anticancer Drug Screen. Data for tumor model L1210 Leukemia (intraperitoneal) in CD2F1 (CDF1) mice. As to conditions: higher = longer survival. In short, it runs like this: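 Vehicle-treated tumor-bearing mice served as controls (C) for compound-treated mice (T). Reported figure is T divided by C.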

Where [1] appears, read: endpoint: mean survival time, dose: 100.0 mg/kg/injection, schedule: Q01DX009 (ip), vehicle: saline with Tween-80.
Setting [2] is: endpoint: mean survival time, dose: 100.0 mg/kg/injection, schedule: Q01DX001 (ip), vehicle: saline with Tween-80.
Setting [3] is: endpoint: mean survival time, dose: 200.0 mg/kg/injection, schedule: Q01DX001 (ip), vehicle: saline with Tween-80.
Setting [4] is: endpoint: mean survival time, dose: 400.0 mg/kg/injection, schedule: Q01DX001 (ip), vehicle: saline with Tween-80.
[5] abbreviates: endpoint: mean survival time, dose: 100.0 mg/kg/injection, schedule: Q04DX002 (ip), vehicle: saline with Tween-80.
The mark [6] stands for this setting: endpoint: mean survival time, dose: 200.0 mg/kg/injection, schedule: Q04DX002 (ip), vehicle: saline with Tween-80.
Setting [7] is: endpoint: mean survival time, dose: 400.0 mg/kg/injection, schedule: Q04DX002 (ip), vehicle: saline with Tween-80.
Setting [8] is: endpoint: mean survival time, dose: 12.5 mg/kg/injection, schedule: Q01DX009 (ip), vehicle: Klucel (hydroxypropylcellulose) (HPC).
Setting [9] is: endpoint: mean survival time, dose: 50.0 mg/kg/injection, schedule: Q01DX009 (ip), vehicle: Klucel (hydroxypropylcellulose) (HPC).
Setting [10] is: endpoint: mean survival time, dose: 200.0 mg/kg/injection, schedule: Q01DX009 (ip), vehicle: saline with Tween-80.
The mark [11] stands for this setting: endpoint: mean survival time, dose: 400.0 mg/kg/injection, schedule: Q01DX009 (ip), vehicle: saline with Tween-80.

On to `O=C(O)CC(NC(=O)CP(=O)(O)O)C(=O)O.[NH-]C1CCCCC1[NH-].[Pt+2]` (stereo unspecified), for which the T/C runs as follows: (endpoint: mean survival time, dose: 3.12 mg/kg/injection, schedule: Q01DX009 (ip), vehicle: dextrose) 238 % of control; (endpoint: mean survival time, dose: 6.25 mg/kg/injection, schedule: Q01DX009 (ip), vehicle: dextrose) 274 % of control; (endpoint: mean survival time, dose: 7.9 mg/kg/injection, schedule: Q04DX003 (ip), vehicle: saline) 122 % of control; (endpoint: mean survival time, dose: 8.0 mg/kg/injection, schedule: Q04DX003 (ip), vehicle: dextrose) 231 % of control; (endpoint: mean survival time, dose: 11.9 mg/kg/injection, schedule: Q04DX003 (ip), vehicle: dextrose) 280 % of control; (endpoint: mean survival time, dose: 12.0 mg/kg/injection, schedule: Q04DX003 (ip), vehicle: dextrose) 174 % of control. Besides, the T/C was 92 % of control (endpoint: mean survival time, dose: 12.5 mg/kg/injection, schedule: Q01DX009 (ip), vehicle: dextrose); 237 % of control (endpoint: mean survival time, dose: 17.89 mg/kg/injection, schedule: Q04DX003 (ip), vehicle: dextrose); 225 % of control (endpoint: mean survival time, dose: 18.0 mg/kg/injection, schedule: Q04DX003 (ip), vehicle: dextrose); 184 % of control (endpoint: mean survival time, dose: 26.7 mg/kg/injection, schedule: Q04DX003 (ip), vehicle: dextrose); 260 % of control (endpoint: mean survival time, dose: 26.7 mg/kg/injection, schedule: Q04DX003 (ip), vehicle: saline); 265 % of control (endpoint: mean survival time, dose: 40.0 mg/kg/injection, schedule: Q04DX003 (ip), vehicle: dextrose). Moreover, the T/C reads like this: (endpoint: mean survival time, dose: 40.0 mg/kg/injection, schedule: Q04DX003 (ip), vehicle: saline) 298 % of control; (endpoint: mean survival time, dose: 60.0 mg/kg/injection, schedule: Q04DX003 (ip), vehicle: dextrose) 194 % of control; (endpoint: mean survival time, dose: 60.0 mg/kg/injection, schedule: Q04DX003 (ip), vehicle: saline) 306 % of control; (endpoint: mean survival time, dose: 90.0 mg/kg/injection, schedule: Q04DX003 (ip), vehicle: dextrose) 169 % of control; (endpoint: median survival time, dose: 2.0 mg/kg/injection, schedule: Q01DX009 (ip), vehicle: dextrose) 209 % of control; (endpoint: median survival time, dose: 4.0 mg/kg/injection, schedule: Q01DX009 (ip), vehicle: dextrose) 262 % of control. Moreover, the T/C was 177 % of control (endpoint: median survival time, dose: 9.0 mg/kg/injection, schedule: Q01DX009 (ip), vehicle: dextrose); 182 % of control (endpoint: median survival time, dose: 10.0 mg/kg/injection, schedule: Q01DX001 (ip), vehicle: dextrose); 201 % of control (endpoint: median survival time, dose: 15.0 mg/kg/injection, schedule: Q01DX001 (ip), vehicle: other); 208 % of control (endpoint: median survival time, dose: 17.98 mg/kg/injection, schedule: Q04DX003 (ip), vehicle: dextrose); 206 % of control (endpoint: median survival time, dose: 20.0 mg/kg/injection, schedule: Q01DX001 (ip), vehicle: dextrose); 220 % of control (endpoint: median survival time, dose: 27.0 mg/kg/injection, schedule: Q04DX003 (ip), vehicle: dextrose). The T/C is, setting by setting: (endpoint: median survival time, dose: 30.0 mg/kg/injection, schedule: Q01DX001 (ip), vehicle: other) 681 % of control; (endpoint: median survival time, dose: 40.0 mg/kg/injection, schedule: Q01DX001 (ip), vehicle: dextrose) 188 % of control.
Regarding `CN1CCc2cc3c(cc2C1)OCO3`, the T/C (endpoint: mean survival time, dose: 75.0 mg/kg/injection, schedule: Q01DX001 (ip), vehicle: other) was 98 % of control; the T/C (endpoint: mean survival time, dose: 100.0 mg/kg/injection, schedule: Q01DX001 (ip), vehicle: saline) was 97 % of control; the T/C (endpoint: mean survival time, dose: 150.0 mg/kg/injection, schedule: Q01DX001 (ip), vehicle: other) was 92 % of control.
Consider `N#C/C(=C\c1c(O)ccc2ccccc12)c1ccc([N+](=O)[O-])cc1`, for which the T/C is 88 % of control (endpoint: mean survival time, dose: 66.0 mg/kg/injection, schedule: Q01DX009 (ip), vehicle: saline with Tween-80); 91 % of control and 92 % of control under setting [1]; 91 % of control (endpoint: mean survival time, dose: 100.0 mg/kg/injection, schedule: Q04DX003 (ip), vehicle: saline with Tween-80); 100 % of control (endpoint: mean survival time, dose: 150.0 mg/kg/injection, schedule: Q01DX009 (ip), vehicle: saline with Tween-80); 94 % of control (endpoint: mean survival time, dose: 200.0 mg/kg/injection, schedule: Q04DX003 (ip), vehicle: saline with Tween-80); 91 % of control (endpoint: mean survival time, dose: 400.0 mg/kg/injection, schedule: Q04DX003 (ip), vehicle: saline with Tween-80).
For the compound `O=[N+]([O-])c1ccc(C(O)C(O)c2ccccc2)cc1` (stereo unspecified), the T/C under setting [2] is 96 % of control, the T/C under setting [3] was 92 % of control and the T/C under setting [4] was 95 % of control.
As for `O=c1ccc2nc3cc(Cl)ccc3sc-2c1`, the T/C is, setting by setting: (endpoint: mean survival time, dose: 100.0 mg/kg/injection, schedule: Q04DX003 (ip), vehicle: Klucel (hydroxypropylcellulose) (HPC)) 94 % of control; (endpoint: mean survival time, dose: 200.0 mg/kg/injection, schedule: Q04DX003 (ip), vehicle: Klucel (hydroxypropylcellulose) (HPC)) 94 % of control; (endpoint: mean survival time, dose: 400.0 mg/kg/injection, schedule: Q04DX003 (ip), vehicle: Klucel (hydroxypropylcellulose) (HPC)) 94 % of control.
For `CCS(=O)(=O)CCNCCS(=O)(=O)CC`, the T/C under setting [5] was 104 % of control, the T/C under setting [6] is 93 % of control and the T/C under setting [7] was 104 % of control.
As for `Clc1ccc([PH+](c2ccc(Cl)cc2)c2ccc(Cl)cc2)cc1.Clc1ccc([PH+](c2ccc(Cl)cc2)c2ccc(Cl)cc2)cc1.[Cl][Hg][Cl]`, the T/C by setting is: under setting [8], 96 % of control; under setting [9], 104 % of control.
Take `C=C1CC23CC1(O)CCC2C12C=CCC(C)(C(=O)O1)C2C3C(=O)O` (stereo unspecified): the T/C runs as follows: under setting [1], 91 % of control; under setting [10], 95 % of control; under setting [11], 91 % of control.
As for `CC(C)OC(=O)N(C(=O)OC(C)C)c1ccc(Cl)cc1`, the T/C by setting is: under setting [5], 97 % of control; under setting [6], 94 % of control; under setting [7], 102 % of control.
Regarding `CCCCOCN(COCCCC)C12CC3CC(CC(C3)C1)C2`, the T/C runs as follows: (endpoint: mean survival time, dose: 12.5 mg/kg/injection, schedule: Q01DX009 (ip), vehicle: saline with Tween-80) 96 % of control and 100 % of control; (endpoint: mean survival time, dose: 25.0 mg/kg/injection, schedule: Q01DX009 (ip), vehicle: saline with Tween-80) 98 % of control; (endpoint: mean survival time, dose: 50.0 mg/kg/injection, schedule: Q01DX009 (ip), vehicle: saline with Tween-80) 101 % of control and 103 % of control; under setting [1], 101 % of control and 105 % of control; under setting [10], 113 % of control and 108 % of control.
Turning to `CC1(C)CC2(OC2c2ccccc2)C(=O)c2ccccc21` (stereo unspecified), the T/C was 96 % of control under setting [8]; 92 % of control (endpoint: mean survival time, dose: 25.0 mg/kg/injection, schedule: Q01DX009 (ip), vehicle: Klucel (hydroxypropylcellulose) (HPC)); 87 % of control under setting [9]; 96 % of control (endpoint: mean survival time, dose: 100.0 mg/kg/injection, schedule: Q01DX009 (ip), vehicle: Klucel (hydroxypropylcellulose) (HPC)); 94 % of control (endpoint: mean survival time, dose: 200.0 mg/kg/injection, schedule: Q01DX009 (ip), vehicle: Klucel (hydroxypropylcellulose) (HPC)); 94 % of control (endpoint: mean survival time, dose: 400.0 mg/kg/injection, schedule: Q01DX009 (ip), vehicle: Klucel (hydroxypropylcellulose) (HPC)).
Regarding `CNNCCCC(=O)NC(C)C`, the T/C (endpoint: mean survival time, dose: 25.0 mg/kg/injection, schedule: Q04DX003 (ip), vehicle: saline) is 105 % of control; the T/C (endpoint: mean survival time, dose: 50.0 mg/kg/injection, schedule: Q04DX003 (ip), vehicle: saline) is 103 % of control; the T/C (endpoint: mean survival time, dose: 100.0 mg/kg/injection, schedule: Q04DX003 (ip), vehicle: saline) is 110 % of control; the T/C (endpoint: mean survival time, dose: 200.0 mg/kg/injection, schedule: Q04DX003 (ip), vehicle: saline) was 112 % of control.
In the case of `O=C(Nc1ccc(Cl)c(Cl)c1)Nc1ccc(Oc2ccc(Cl)cc2Cl)cc1S(=O)(=O)O`, the T/C by setting is: (endpoint: mean survival time, dose: 100.0 mg/kg/injection, schedule: Q01DX001 (ip), vehicle: acetone) 102 % of control; (endpoint: mean survival time, dose: 200.0 mg/kg/injection, schedule: Q01DX001 (ip), vehicle: acetone) 91 % of control; (endpoint: mean survival time, dose: 400.0 mg/kg/injection, schedule: Q01DX001 (ip), vehicle: acetone) 94 % of control.
For `CC(C)N(CCNc1nc(C(Cl)(Cl)Cl)nc2ccc(Cl)cc12)C(C)C`, the T/C is, setting by setting: under setting [2], 103 % of control; under setting [1], 96 % of control; under setting [3], 94 % of control; under setting [10], 96 % of control; under setting [4], 103 % of control; under setting [11], 95 % of control.
